Results published in ChEMBL document CHEMBL4602605, “Fluoroquinolones structural and medicinal developments (2013-2018): Where are we now?” (Bioorg Med Chem, 2019).
Values after ≈ are worked out from the molar mass of the structure shown.

Experiments:
Type in all cases: functional
[1] = tested on: Pseudomonas aeruginosa; assay: Antimicrobial activity against Pseudomonas aeruginosa ATCC 19429 incubated for 18 hrs by CLSI-based microbroth dilution method; conditions: ATCC 19429, 18 h
[2] = tested on: Staphylococcus aureus; assay: Antimicrobial activity against Staphylococcus aureus ATCC 25923 incubated for 18 hrs by CLSI-based microbroth dilution method; conditions: ATCC 25923, 18 h
[3] = tested on: Escherichia coli; assay: Antibacterial activity against Escherichia coli incubated for 18 hrs by CLSI-based broth microdilution method
[4] = tested on: Mycobacterium tuberculosis; assay: Antimicrobial activity against Mycobacterium tuberculosis H37Rv ATCC 27294 incubated for 7 days by microplate Alamar blue assay; conditions: H37Rv ATCC 27294, 168 h
[5] = tested on: Staphylococcus epidermidis; assay: Antimicrobial activity against methicillin-susceptible Staphylococcus epidermidis ATCC 12228 incubated for 18 to 24 hrs by two-fold serial dilution method
[6] = tested on: Staphylococcus aureus; assay: Antimicrobial activity against methicillin-susceptible Staphylococcus aureus ATCC 29213 incubated for 18 to 24 hrs by two-fold serial dilution method
[7] = tested on: Staphylococcus aureus; assay: Antimicrobial activity against methicillin-resistant Staphylococcus aureus ATCC 33591 incubated for 18 to 24 hrs by two-fold serial dilution method
[8] = tested on: Enterococcus faecium; assay: Antimicrobial activity against Enterococcus faecium ATCC 700221 incubated for 18 to 24 hrs by two-fold serial dilution method
[9] = tested on: Streptococcus pneumoniae; assay: Antibacterial activity against Streptococcus pneumoniae ATCC 49619 incubated for 24 hrs; conditions: ATCC 49619, 24 h
[10] = tested on: Staphylococcus aureus; assay: Antimicrobial activity against Staphylococcus aureus ATCC 29213 incubated for 24 hrs; conditions: ATCC 29213, 24 h
[11] = tested on: Pseudomonas aeruginosa; assay: Antimicrobial activity against Pseudomonas aeruginosa ATCC 27853 incubated for 24 hrs; conditions: ATCC 27853, 24 h
[12] = tested on: Escherichia coli; assay: Antimicrobial activity against Escherichia coli ATCC 25922 incubated for 24 hrs; conditions: ATCC 25922, 24 h

In the case of `O=C(O)c1cn(C2CC2)c2cc(N3CCCC3)c(F)cc2c1=O`, the MIC [1] was over 128 µg/mL and the MIC [2] was 0.0625 µg/mL (≈ 0.198 µM).

With `CCn1cc(C(=O)O)c(=O)c2cc(F)c(N(C)C)cc21` the MIC [3] was 2 µg/mL (≈ 7.19 µM), the MIC [1] was 64 µg/mL (≈ 230 µM) and the MIC [2] was 0.5 µg/mL (≈ 1.8 µM).

With `O=C(O)c1cn(C2CC2)c2cc(N3CCCCC3)c(F)cc2c1=O` the MIC [1] was 32 µg/mL (≈ 96.9 µM) and the MIC [2] was 0.25 µg/mL (≈ 0.757 µM).

In the case of `O=C(O)c1cn(C2CC2)c2cc(N3CCOCC3)c(F)cc2c1=O`, the MIC [1] was 8 µg/mL (≈ 24.1 µM) and the MIC [2] was 125 µg/mL (≈ 376 µM).

`CN1CCN(c2cc3c(cc2F)c(=O)c(C(=O)O)cn3C2CC2)CC1` showed an MIC [3] of 0.0078 µg/mL (≈ 0.0226 µM), an MIC [1] of 1 µg/mL (≈ 2.9 µM) and an MIC [2] of 0.25 µg/mL (≈ 0.724 µM).

Work on `COc1ccc(C(=O)N/N=C(\C)CN2CCN(c3c(F)cc4c(=O)c(C(=O)O)cn(C5CC5)c4c3OC)CC2)cc1` yielded an MIC [4] of 0.214 µM (≈ 0.121 µg/mL), an MIC [5] of 0.125 µg/mL (≈ 0.221 µM) and an MIC [6] of 0.125 µg/mL (≈ 0.221 µM). It also gave an MIC [7] of 0.25 µg/mL (≈ 0.442 µM) and an MIC [8] of 64 µg/mL (≈ 113 µM).

For `CCn1cc(C(=O)O)c(=O)c2cc(F)c(N3CCN(C/C(=N/N)c4ccc([N+](=O)[O-])cc4)CC3)cc21`, the MIC [9] was 25 µg/mL (≈ 50.4 µM), the MIC [10] was 12.5 µg/mL (≈ 25.2 µM) and the MIC [11] was 50 µg/mL (≈ 101 µM). It also gave an MIC [12] of 12.5 µg/mL (≈ 25.2 µM).

`COc1c(N2CCN(C/C(C)=N/NC(=O)c3ccc(Cl)cc3)CC2)c(F)cc2c(=O)c(C(=O)O)cn(C3CC3)c12` gave an MIC [4] of 0.272 µM (≈ 0.155 µg/mL), an MIC [5] of 0.125 µg/mL (≈ 0.219 µM) and an MIC [6] of 0.125 µg/mL (≈ 0.219 µM). The MIC [7] was 0.125 µg/mL (≈ 0.219 µM) and the MIC [8] was 32 µg/mL (≈ 56.1 µM).

`CCn1cc(C(=O)O)c(=O)c2cc(F)c(N3CCN(C/C(=N/OC)c4ccccc4)CC3)cc21` was tested, and the MIC [9] was over 100 µg/mL, the MIC [10] was 50 µg/mL (≈ 107 µM) and the MIC [11] was over 100 µg/mL. The MIC [12] was 50 µg/mL (≈ 107 µM).

With `CCn1cc(C(=O)O)c(=O)c2cc(F)c(N3CCN(C/C(=N\Nc4ccccc4)c4ccccc4)CC3)cc21` the MIC [9] was 100 µg/mL (≈ 190 µM), the MIC [10] was 50 µg/mL (≈ 94.8 µM) and the MIC [11] was 100 µg/mL (≈ 190 µM). It also gave an MIC [12] of 25 µg/mL (≈ 47.4 µM).

In the case of `CCn1cc(C(=O)O)c(=O)c2cc(F)c(N3CCN(C/C(=N\N)c4ccccc4)CC3)cc21`, the MIC [9] was 50 µg/mL (≈ 111 µM), the MIC [10] was 25 µg/mL (≈ 55.4 µM) and the MIC [11] was 100 µg/mL (≈ 221 µM). For the same compound, the MIC [12] was 12.5 µg/mL (≈ 27.7 µM).

`Cl.O=C(O)c1cn(Cc2ccccc2)c2cc(N3CCNCC3)c(F)cc2c1=O` was tested, and the MIC [3] was 1 µg/mL, the MIC [1] was 2 µg/mL and the MIC [2] was 2 µg/mL.

With `CCn1cc(C(=O)O)c(=O)c2cc(F)c(N3CCNCC3)cc21.Cl` the MIC [1] was 1 µg/mL and the MIC [2] was 2 µg/mL.

For `CCCCN(CCCC)c1cc2c(cc1F)c(=O)c(C(=O)O)cn2CC`, the MIC [3] was over 128 µg/mL, the MIC [1] was over 128 µg/mL and the MIC [2] was 8 µg/mL (≈ 22.1 µM).

For `CCCCN(CCCC)c1cc2c(cc1F)c(=O)c(C(=O)O)cn2C1CC1`, the MIC [3] was over 128 µg/mL, the MIC [1] was over 128 µg/mL and the MIC [2] was 8 µg/mL (≈ 21.4 µM).

`CCn1cc(C(=O)O)c(=O)c2cc(F)c(N3CCN(C/C(=N/OC)c4ccc(C)cc4)CC3)cc21` showed an MIC [9] of 100 µg/mL (≈ 208 µM), an MIC [10] of 25 µg/mL (≈ 52 µM) and an MIC [11] of over 100 µg/mL. It also gave an MIC [12] of 25 µg/mL (≈ 52 µM).

`CC(C)n1cc(C(=O)O)c(=O)c2cc(F)c(N3CCNCC3)cc21.Cl` showed an MIC [3] of 0.5 µg/mL, an MIC [1] of 4 µg/mL and an MIC [2] of 8 µg/mL.

Compound `CCN(CC)c1cc2c(cc1F)c(=O)c(C(=O)O)cn2CC` has an MIC [3] of 8 µg/mL (≈ 26.1 µM), an MIC [1] of over 128 µg/mL and an MIC [2] of 4 µg/mL (≈ 13.1 µM).

Compound `COc1c(N2CCN(C/C(C)=N/NC(=O)c3ccccc3)CC2)c(F)cc2c(=O)c(C(=O)O)cn(C3CC3)c12` has an MIC [4] of 0.226 µM (≈ 0.121 µg/mL), an MIC [5] of 0.125 µg/mL (≈ 0.233 µM) and an MIC [6] of 0.125 µg/mL (≈ 0.233 µM). The MIC [7] was 0.125 µg/mL (≈ 0.233 µM) and the MIC [8] was over 128 µg/mL.

In the case of `CCn1cc(C(=O)O)c(=O)c2cc(F)c(N3CCN(C/C(=N/Nc4ccccc4)c4ccc(OC)cc4)CC3)cc21`, the MIC [9] was 100 µg/mL (≈ 179 µM), the MIC [10] was 25 µg/mL (≈ 44.8 µM) and the MIC [11] was 100 µg/mL (≈ 179 µM). For the same compound, the MIC [12] was 25 µg/mL (≈ 44.8 µM).

Work on `CCn1cc(C(=O)O)c(=O)c2cc(F)c(N3CCN(C/C(=N/O)c4ccc([N+](=O)[O-])cc4)CC3)cc21` yielded an MIC [9] of 50 µg/mL (≈ 101 µM), an MIC [10] of 6.25 µg/mL (≈ 12.6 µM) and an MIC [11] of 100 µg/mL (≈ 201 µM). The MIC [12] was 12.5 µg/mL (≈ 25.1 µM).

For `CN(C)c1cc2c(cc1F)c(=O)c(C(=O)O)cn2C1CC1`, the MIC [1] was 8 µg/mL (≈ 27.6 µM) and the MIC [2] was 125 µg/mL (≈ 431 µM).

With `CCCCCCn1cc(C(=O)O)c(=O)c2cc(F)c(N3CCNCC3)cc21.Cl` the MIC [3] was 64 µg/mL, the MIC [1] was over 128 µg/mL and the MIC [2] was over 128 µg/mL.

`Cc1ccc(/C(CN2CCN(c3cc4c(cc3F)c(=O)c(C(=O)O)cn4C3CC3)CC2)=N\NC(N)=O)cc1` showed an MIC [9] of 25 µg/mL (≈ 48 µM), an MIC [10] of 6.25 µg/mL (≈ 12 µM) and an MIC [11] of 50 µg/mL (≈ 96 µM). The MIC [12] was 12.5 µg/mL (≈ 24 µM).

`Cl.NCCNc1cc2c(cc1F)c(=O)c(C(=O)O)cn2C1CC1` was tested, and the MIC [3] was 1 µg/mL, the MIC [1] was 4 µg/mL and the MIC [2] was 16 µg/mL.
